Assay results taken from paper PMC6724046 (Viruses, 2019).
Counter-ions that a name gives are not always drawn. Like-named read-outs stand apart in the source and are kept apart here.

Columns and labels:
[1] = test system: CPV SD6 (New CPV-2a strain); test: CPE-based antiviral inhibitor screening assay; assay type: cell-based, Canine parvovirus; details: for anti-CPV effect on F81 cells / Percentage CPE inhibition (mean ± s.d.): 10 μM; for anti-CPV effect on F81 cells: CPE-based screening assay; for Percentage CPE inhibition (mean ± s.d.): cells treated with drug 1 hour prior to virus infection, MOI 0.076, 40 h postinfection
[2] = 50% cytotoxicity concentration (CC50) assay; assay type: cell-based, Feline; details: cat
[3] = test system: CPV; test: 50% antiviral efficacy concentration (EC50) assay, CPE-based; assay type: cell-based, Canine parvovirus; details: F81 cells pretreated 1 h, CPV MOI 0.076, 40 h
[4] = test system: F81 cells; test: 50% cytotoxicity concentration (CC50) assay; assay type: cell-based, Feline
[5] = test system: CPV SD6; test: Absolute quantitative PCR of CPV VP2 gene copies in infected F81 cells; assay type: cell-based, Canine parvovirus; details: 10 μM, 1 mL whole cell lysates, 40 hpi
[6] = test system: CPV; test: Immunofluorescence assay (IFA) for VP2 protein in infected F81 cells; assay type: cell-based, Canine parvovirus; details: about 30 hpi
[7] = test system: CPV; test: Time of addition study (percentage CPE inhibition); assay type: cell-based, Canine parvovirus; details: 10 μM; for Percentage CPE inhibition (mean ± s.d.): drug added 1 hour post virus infection, 40 h postinfection
[8] = test system: CPV variant SD6 (New CPV-2a strain); test: Western blot of VP2 expression, variant SD6; assay type: cell-based, Canine parvovirus; details: 10 μM, SD6, 40 hpi, normalized to 0.1% DMSO-treated group
[9] = test system: CPV variant SD3 (New CPV-2b strain); test: Western blot of VP2 expression, variant SD3; assay type: cell-based, Canine parvovirus; details: 10 μM, SD3, 40 hpi, normalized to 0.1% DMSO-treated group
[10] = test system: CPV variant BJ-1 (New CPV-2a strain); test: Western blot of VP2 expression, variant BJ-1; assay type: cell-based, Canine parvovirus; details: 10 μM, BJ-1, 40 hpi, normalized to 0.1% DMSO-treated group
[11] = test system: F81 cells; test: Caspase-Glo 3/7 assay in F81 cells with or without CPV infection; assay type: cell-based, Feline; details: 10 μM, with or without CPV infection, 4, 8, 12 and 24 hpi
[12] = test system: CPV enteritis; design: method as in earlier work; details: Oseltamivir-treated group; cited from earlier work
[13] = F81 cells, 40 h incubation, read-out: CC50

Nc1ccn(C[C@@H](CO)OCP(=O)(O)O)c(=O)n1 [Cidofovir]
anti-CPV effect on F81 cells [1]: no anti-CPV effects

Nc1nc(Cl)nc2c1ncn2[C@H]1C[C@H](O)[C@@H](CO)O1 [Cladribine]
CC50 at 40 h ([2]; CC50): 40.2 µM
EC50 ([3]; Canine parvovirus): 320 nM

Cc1cc(C(C#N)c2ccc(Cl)cc2)c(Cl)cc1NC(=O)c1cc(I)cc(I)c1[O-].[Na+] (stereo not drawn) [Closantel Sodium]
Percentage CPE inhibition (mean ± s.d.) [1]: 69.76 ± 6.06%
CC50 [4]: 19.1 µM
EC50 [3]: 6010 nM
CPV viral DNA copy numbers compared with the 0.1% DMSO-treated group [5]: 24.04%
CPV infection by IFA (VP2 staining) ([6]; 5 μM): CPV infection could be inhibited
CPV infection by IFA (VP2 staining) ([6]; 10 μM): Few cells were CPV-positive
CPV infection by IFA (VP2 staining) ([6]; 20 μM): Almost no green signals were detected
Percentage CPE inhibition (mean ± s.d.) [7]: 58.14 ± 7.28%
relative expression of VP2 [8]: 22.50%
relative expression of VP2 [9]: 23.85%
relative expression of VP2 [10]: 12.83%
pro- or antiapoptotic effect (Caspase 3/7 activity) [11]: no pro- or antiapoptotic effects

Cc1cc(C(C#N)c2ccc(Cl)cc2)c(Cl)cc1NC(=O)c1cc(I)cc(I)c1O (stereo not drawn) [Closantel]
CC50 at 40 h [2]: 13.7 µM
EC50 ([3]; Canine parvovirus): 7770 nM
CPV viral DNA copy numbers compared with the 0.1% DMSO-treated group [5]: 20.83%
CPV infection by IFA (VP2 staining) ([6]; 5 μM): CPV infection could be inhibited
CPV infection by IFA (VP2 staining) ([6]; 10 μM): Few cells were CPV-positive
CPV infection by IFA (VP2 staining) ([6]; 20 μM): Almost no green signals were detected
relative expression of VP2 [8]: 30.1%
relative expression of VP2 [9]: 10.78%
relative expression of VP2 [10]: 14.58%
pro- or antiapoptotic effect (Caspase 3/7 activity) [11]: no pro- or antiapoptotic effects

Nc1ccn([C@@H]2O[C@H](CO)[C@@H](O)C2(F)F)c(=O)n1 [Gemcitabine HCl]
CC50 [4, 13]: 142 µM
EC50 ([3]; Canine parvovirus): 680 nM

Nc1ccn([C@@H]2O[C@H](CO)[C@@H](O)C2(F)F)c(=O)n1 [Gemcitabine]
CC50 [4, 13]: 40 µM
EC50 [3]: 620 nM
Percentage CPE inhibition (mean ± s.d.) [7]: 42.8 ± 6.13%

CC(=O)Oc1ccccc1C(=O)Nc1ncc([N+](=O)[O-])s1 [Nitazoxanide]
CC50 at 40 h [2, 13]: 21 µM
EC50 ([3]; Canine parvovirus): 2710 nM
CPV viral DNA copy numbers compared with the 0.1% DMSO-treated group [5]: 0.07%
CPV infection by IFA (VP2 staining) ([6]; 5 μM): CPV infection could be inhibited
CPV infection by IFA (VP2 staining) ([6]; 10 μM): Few cells were CPV-positive
CPV infection by IFA (VP2 staining) ([6]; 20 μM): Almost no green signals were detected
anti-CPV activity by time of drug addition ([7]; drug added 3 h postinfection): anti-CPV activity of Nitazoxanide was observed
pro- or antiapoptotic effect (Caspase 3/7 activity) [11]: antiapoptotic effects were observed within 12 h

CCOC(=O)C1=C[C@@H](OC(CC)CC)[C@H](NC(C)=O)[C@@H](N)C1 [Oseltamivir]
anti-CPV effect on F81 cells [1]: no anti-CPV effects
inhibition at 10 µM ([1]; Canine parvovirus, read-out: Percentage CPE inhibition (mean ± s.d.)): 2.13 ± 2.41%
weight versus control group [12]: significant increase of weight
white blood cell (WBC) count versus control group [12]: no changes

Nc1nc2[nH]cc(CCc3ccc(C(=O)N[C@@H](CCC(=O)[O-])C(=O)[O-])cc3)c2c(=O)[nH]1.Nc1nc2[nH]cc(CCc3ccc(C(=O)N[C@@H](CCC(=O)[O-])C(=O)[O-])cc3)c2c(=O)[nH]1.O.O.O.O.O.[Na+].[Na+].[Na+].[Na+] [Pemetrexed Disodium Hydrate]
Percentage CPE inhibition (mean ± s.d.) [1]: 26.56 ± 2.12%
Percentage CPE inhibition (mean ± s.d.) [7]: 30.28 ± 5.74%

CN1CCC(=C2c3ccccc3CCc3sccc32)CC1.O=C(O)CC(O)C(=O)O [Pizotifen Malate]
Percentage CPE inhibition (mean ± s.d.) [1]: 29.2 ± 2.72%
Percentage CPE inhibition (mean ± s.d.) [7]: 26.48 ± 2.91%

O=c1[nH]c(=O)n([C@H]2C[C@H](O)[C@@H](CO)O2)cc1C(F)(F)F [Trifluridine]
CC50 at 40 h [2]: > 160 µM
EC50 ([3]; Canine parvovirus): 9350 nM
